Patent US20220386606A1, “SPECIFICALLY SUBSTITUTED 3-PHENYL-5-SPIROCYCLOPENTYL-3-PYRROLIN-2-ONES AND THEIR USE AS HERBICIDES” (Bayer Aktiengesellschaft, priority 2019, published 2022)

Assays:
[1] = system: ALOMY; test: Post-emergence herbicidal action against ALOMY; type: in vivo, Alopecurus myosuroides; details: 80 g/ha, visual assessment after about 3 weeks
In short: (§1)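 Weeds were grown in sandy loam in a greenhouse and treated at the one-leaf stage, 2 to 3 weeks after sowing. WP or EC formulations were sprayed onto green parts at 600 to 800 l/ha water with 0.2% wetting agent. Visual % action versus untreated controls was scored after about 3 weeks.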

[2] = system: AVEFA; test: Post-emergence herbicidal action against AVEFA; type: in vivo, Avena fatua; details: 80 g/ha, visual assessment after about 3 weeks
In short: as §1

[3] = system: LOLRI; test: Post-emergence herbicidal action against LOLRI; type: in vivo, Lolium rigidum; details: 80 g/ha, visual assessment about 3 weeks after treatment vs untreated controls
In short: as §1

[4] = system: SETVI; test: Post-emergence herbicidal action against SETVI; type: in vivo, Setaria viridis; details: 80 g/ha, visual assessment about 3 weeks after treatment vs untreated controls
In short: as §1

[5] = system: ABUTH; test: Post-emergence herbicidal action against ABUTH; type: in vivo, Abutylon threophrasti; details: 80 g/ha, visual assessment about 3 weeks after treatment vs untreated controls
In short: as §1

[6] = system: HORMU; test: Post-emergence herbicidal action against HORMU; type: in vivo, Hordeum murinum; details: 80 g/ha, visual assessment about 3 weeks after treatment vs untreated controls
Experimental: Seeds of monocotyledonous and dicotyledonous weed and crop plants are laid out in sandy loam soil in wood-fiber pots, covered with soil and cultivated in a greenhouse under good growth conditions. 2 to 3 weeks after sowing, the test plants are treated at the one-leaf stage. The compounds of the invention, formulated in the form of wettable powders (WP) or as emulsion concentrates (EC), are then sprayed onto the green parts of the plants as aqueous suspension or emulsion at a water application rate equating to 600 to 800 l/ha with addition of 0.2% wetting agent. After the test plants have been left to stand in the greenhouse under optimal growth conditions for about 3 weeks, the action of the preparations is assessed visually in comparison to untreated controls (herbicidal action in percent (%): 100% activity=the plants have died, 0% activity=like control plants).

[7] = system: DIGSA; test: Post-emergence herbicidal action against DIGSA; type: in vivo, Digitaria sanguinalis; details: 80 g/ha, visual assessment about 3 weeks after treatment vs untreated controls
In short: as §1

[8] = system: ECHCG; test: Post-emergence herbicidal action against ECHCG; type: in vivo, Echinochloa crus-galli; details: 80 g/ha, visual assessment about 3 weeks after treatment vs untreated controls
In short: as §1

CC#Cc1cc(C)c(C2=C(O)C3(CCC(COC)C3)NC2=O)c(Cl)c1 (stereo not drawn) [Example I-06]
100%: Post-emergence action against ALOMY in % [1] | Post-emergence action against AVEFA in % [2] | Post-emergence action against LOLRI in % [3] | Post-emergence action against SETVI in % [4] | Post-emergence action against HORMU in % [6] | Post-emergence action against DIGSA in % [7] | Post-emergence action against ECHCG in % [8]
80%: Post-emergence action against ABUTH in % [5]

CC#Cc1cc(C)c(C2=C(O)C3(CCC(COCC)C3)NC2=O)c(Cl)c1 (stereo not drawn) [Example I-09]
100%: Post-emergence action against ALOMY in % [1] | Post-emergence action against AVEFA in % [2] | Post-emergence action against LOLRI in % [3] | Post-emergence action against SETVI in % [4] | Post-emergence action against HORMU in % [6] | Post-emergence action against DIGSA in % [7] | Post-emergence action against ECHCG in % [8]

CC#Cc1cc(C)c(C2=C(O)C3(CCC(COC)C3)NC2=O)c(Cl)c1 (stereo not drawn) [Example I-12]
100%: Post-emergence action against ALOMY in % [1] | Post-emergence action against AVEFA in % [2] | Post-emergence action against LOLRI in % [3] | Post-emergence action against SETVI in % [4] | Post-emergence action against HORMU in % [6] | Post-emergence action against DIGSA in % [7] | Post-emergence action against ECHCG in % [8]
90%: Post-emergence action against ABUTH in % [5]

C#Cc1cc(Cl)c(C2=C(O)C3(CCC(COC)C3)NC2=O)c(OC)c1 (stereo not drawn) [Example I-13]
90%: Post-emergence action against AVEFA in % [2] | Post-emergence action against LOLRI in % [3] | Post-emergence action against HORMU in % [6]
100%: Post-emergence action against ALOMY in % [1] | Post-emergence action against SETVI in % [4] | Post-emergence action against DIGSA in % [7] | Post-emergence action against ECHCG in % [8]

C#Cc1cc(Cl)c(C2=C(O)C3(CCC(COCC)C3)NC2=O)c(OC)c1 (stereo not drawn) [Example I-14]
90%: Post-emergence action against ALOMY in % [1] | Post-emergence action against AVEFA in % [2] | Post-emergence action against LOLRI in % [3] | Post-emergence action against SETVI in % [4] | Post-emergence action against HORMU in % [6] | Post-emergence action against DIGSA in % [7] | Post-emergence action against ECHCG in % [8]

CC#Cc1cc(Cl)c(C2=C(O)C3(CCC(COCC)C3)NC2=O)c(CC)c1 (stereo not drawn) [Example I-15]
100%: Post-emergence action against ALOMY in % [1] | Post-emergence action against AVEFA in % [2] | Post-emergence action against LOLRI in % [3] | Post-emergence action against SETVI in % [4] | Post-emergence action against HORMU in % [6] | Post-emergence action against DIGSA in % [7] | Post-emergence action against ECHCG in % [8]

CC#Cc1cc(Cl)c(C2=C(O)C3(CCC(COC)C3)NC2=O)c(CC)c1 (stereo not drawn) [Example I-16]
100%: Post-emergence action against ALOMY in % [1] | Post-emergence action against AVEFA in % [2] | Post-emergence action against LOLRI in % [3] | Post-emergence action against SETVI in % [4] | Post-emergence action against HORMU in % [6] | Post-emergence action against DIGSA in % [7] | Post-emergence action against ECHCG in % [8]

C#Cc1cc(Cl)c(C2=C(OC(=O)OCC)C3(CCC(COC)C3)NC2=O)c(OC)c1 (stereo not drawn) [Example P-02]
100%: Post-emergence action against ALOMY in % [1] | Post-emergence action against AVEFA in % [2] | Post-emergence action against LOLRI in % [3] | Post-emergence action against SETVI in % [4] | Post-emergence action against HORMU in % [6] | Post-emergence action against DIGSA in % [7] | Post-emergence action against ECHCG in % [8]

CC#Cc1cc(C)c(C2=C(OC(=O)C(C)C)C3(CCC(COCC)C3)NC2=O)c(Cl)c1 (stereo not drawn) [Example P-03]
80%: Post-emergence action against ABUTH in % [5]
100%: Post-emergence action against ALOMY in % [1] | Post-emergence action against AVEFA in % [2] | Post-emergence action against LOLRI in % [3] | Post-emergence action against SETVI in % [4] | Post-emergence action against HORMU in % [6] | Post-emergence action against DIGSA in % [7] | Post-emergence action against ECHCG in % [8]

CC#Cc1cc(Cl)c(C2=C(OC(=O)OCC)C3(CCC(COC)C3)NC2=O)c(CC)c1 (stereo not drawn) [Example P-06]
100%: Post-emergence action against ALOMY in % [1] | Post-emergence action against AVEFA in % [2] | Post-emergence action against LOLRI in % [3] | Post-emergence action against SETVI in % [4] | Post-emergence action against HORMU in % [6] | Post-emergence action against DIGSA in % [7] | Post-emergence action against ECHCG in % [8]

CC#Cc1cc(Cl)c(C2=C(OC(=O)C(C)C)C3(CCC(COCC)C3)NC2=O)c(CC)c1 (stereo not drawn) [Example P-07]
100%: Post-emergence action against ALOMY in % [1] | Post-emergence action against AVEFA in % [2] | Post-emergence action against LOLRI in % [3] | Post-emergence action against SETVI in % [4] | Post-emergence action against HORMU in % [6] | Post-emergence action against DIGSA in % [7] | Post-emergence action against ECHCG in % [8]

CC#Cc1cc(C)c(C2=C(OC(=O)OCC)C3(CCC(COCC)C3)NC2=O)c(Cl)c1 (stereo not drawn) [Example P-09]
100%: Post-emergence action against ALOMY in % [1] | Post-emergence action against AVEFA in % [2] | Post-emergence action against LOLRI in % [3] | Post-emergence action against SETVI in % [4] | Post-emergence action against HORMU in % [6] | Post-emergence action against DIGSA in % [7] | Post-emergence action against ECHCG in % [8]

CC#Cc1cc(Cl)c(C2=C(OC(=O)C(C)C)C3(CCC(COCC)C3)NC2=O)c(CC)c1 (stereo not drawn) [Example P-12]
100%: Post-emergence action against ALOMY in % [1] | Post-emergence action against AVEFA in % [2] | Post-emergence action against LOLRI in % [3] | Post-emergence action against SETVI in % [4] | Post-emergence action against HORMU in % [6] | Post-emergence action against DIGSA in % [7] | Post-emergence action against ECHCG in % [8]

CC#Cc1cc(Cl)c(C2=C(OC(=O)C(C)C)C3(CCC(COC)C3)NC2=O)c(CC)c1 (stereo not drawn) [Example P-14]
100%: Post-emergence action against ALOMY in % [1] | Post-emergence action against AVEFA in % [2] | Post-emergence action against LOLRI in % [3] | Post-emergence action against SETVI in % [4] | Post-emergence action against HORMU in % [6] | Post-emergence action against DIGSA in % [7] | Post-emergence action against ECHCG in % [8]
90%: Post-emergence action against ABUTH in % [5]

CC#Cc1cc(Cl)c(C2=C(OC(=O)OCC)C3(CCC(COC)C3)NC2=O)c(CC)c1 (stereo not drawn) [Example P-15]
100%: Post-emergence action against ALOMY in % [1] | Post-emergence action against AVEFA in % [2] | Post-emergence action against LOLRI in % [3] | Post-emergence action against SETVI in % [4] | Post-emergence action against HORMU in % [6] | Post-emergence action against DIGSA in % [7] | Post-emergence action against ECHCG in % [8]

C#Cc1cc(Cl)c(C2=C(OC(=O)OCC)C3(CCC(COC)C3)NC2=O)c(OC)c1 (stereo not drawn) [Example P-19]
80%: Post-emergence action against ALOMY in % [1]
100%: Post-emergence action against AVEFA in % [2] | Post-emergence action against LOLRI in % [3] | Post-emergence action against SETVI in % [4] | Post-emergence action against HORMU in % [6] | Post-emergence action against ECHCG in % [8]
90%: Post-emergence action against DIGSA in % [7]

CC#Cc1cc(Cl)c(C2=C(OC(=O)OCC)C3(CCC(COCC)C3)NC2=O)c(CC)c1 (stereo not drawn) [Example P-20]
100%: Post-emergence action against ALOMY in % [1] | Post-emergence action against AVEFA in % [2] | Post-emergence action against LOLRI in % [3] | Post-emergence action against SETVI in % [4] | Post-emergence action against HORMU in % [6] | Post-emergence action against DIGSA in % [7] | Post-emergence action against ECHCG in % [8]

CC#Cc1cc(Cl)c(C2=C(OC(=O)C(C)C)C3(CCC(COC)C3)NC2=O)c(CC)c1 (stereo not drawn) [Example P-22]
100%: Post-emergence action against ALOMY in % [1] | Post-emergence action against AVEFA in % [2] | Post-emergence action against LOLRI in % [3] | Post-emergence action against SETVI in % [4] | Post-emergence action against HORMU in % [6] | Post-emergence action against DIGSA in % [7] | Post-emergence action against ECHCG in % [8]

CC#Cc1cc(C)c(C2=C(OC(=O)OCC)C3(CCC(COC)C3)NC2=O)c(Cl)c1 (stereo not drawn) [Example P-24]
100%: Post-emergence action against ALOMY in % [1] | Post-emergence action against AVEFA in % [2] | Post-emergence action against LOLRI in % [3] | Post-emergence action against SETVI in % [4] | Post-emergence action against HORMU in % [6] | Post-emergence action against DIGSA in % [7] | Post-emergence action against ECHCG in % [8]

CC#Cc1cc(Cl)c(C2=C(OC(=O)C(C)C)C3(CCC(COCC)C3)NC2=O)c(OC)c1 (stereo not drawn) [Example P-25]
100%: Post-emergence action against ALOMY in % [1] | Post-emergence action against AVEFA in % [2] | Post-emergence action against LOLRI in % [3] | Post-emergence action against SETVI in % [4] | Post-emergence action against HORMU in % [6] | Post-emergence action against DIGSA in % [7] | Post-emergence action against ECHCG in % [8]
90%: Post-emergence action against ABUTH in % [5]

CC#Cc1cc(Cl)c(C2=C(OC(=O)OCC)C3(CCC(COCC)C3)NC2=O)c(OC)c1 (stereo not drawn) [Example P-26]
100%: Post-emergence action against ALOMY in % [1] | Post-emergence action against AVEFA in % [2] | Post-emergence action against LOLRI in % [3] | Post-emergence action against SETVI in % [4] | Post-emergence action against HORMU in % [6] | Post-emergence action against DIGSA in % [7] | Post-emergence action against ECHCG in % [8]
80%: Post-emergence action against ABUTH in % [5]
